Where “and” joins values, the source holds several entries; their conditions need not be identical. Identical values can stand only once.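 Grown in 96-well plates, cells were treated for 48 hours with each compound at five concentrations. Insufficient inhibition: endpoint recorded as highest concentration tested. Abbreviation: GI50, concentration required for 50% inhibition of growth. TGI: concentration producing complete growth inhibition.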
How the values were obtained:
Assay in all cases: NCI-60 cell line screen, 48 h
ACHN renal = test system: ACHN renal
RXF 393 renal = test system: RXF 393 renal
U251 CNS = test system: U251 CNS
PC-3 prostate = test system: PC-3 prostate
SNB-75 CNS = test system: SNB-75 CNS
A549 NSCLC = test system: A549 NSCLC
KM12 colon = test system: KM12 colon
NCI-H226 lung = test system: NCI-H226 lung
SN12C renal = test system: SN12C renal
OVCAR-5 ovarian = test system: OVCAR-5 ovarian

Structure (SMILES) | GI50 (ACHN renal) | TGI (ACHN renal) | GI50 (RXF 393 renal) | TGI (RXF 393 renal) | GI50 (U251 CNS) | TGI (U251 CNS) | GI50 (PC-3 prostate) | TGI (PC-3 prostate) | GI50 (SNB-75 CNS) | TGI (SNB-75 CNS) | GI50 (A549 NSCLC) | TGI (A549 NSCLC) | GI50 (KM12 colon) | TGI (KM12 colon) | GI50 (NCI-H226 lung) | TGI (NCI-H226 lung) | GI50 (SN12C renal) | TGI (SN12C renal) | GI50 (OVCAR-5 ovarian) | TGI (OVCAR-5 ovarian)
O=C1Nc2ccccc2C12CC(c1ccccc1)=NN2 (stereo unspecified) | 6.48 µM | > 100 µM | 3.78 µM | 36.6 µM | 5.4 µM | > 100 µM | 3.89 µM | > 100 µM | 2.98 µM | 59.4 µM | 5.11 µM | > 100 µM | 4.76 µM | > 100 µM | 21.9 µM | > 100 µM | 7.73 µM | > 100 µM | 16.4 µM | 96.1 µM
CC[C@](O)(C(=O)O)c1cc2n(c(=O)c1CO)Cc1cc3ccccc3nc1-2 |  | 0.0211 µM | 0.0278 µM and < 0.0225 µM | 1.1 µM and 0.476 µM and 0.15 µM | < 0.0025 µM and 0.0107 µM | 0.0386 µM and 0.164 µM and 0.0615 µM | 0.113 µM | 5.17 µM | 0.00391 µM and 0.016 µM | 0.201 µM and 0.0714 µM and 0.343 µM | 0.0057 µM and < 0.0178 µM | 2.6 µM and 1.48 µM and 0.42 µM | 0.132 µM and 0.228 µM and 0.54 µM |  |  | 0.866 µM and 0.332 µM and 1.62 µM | 0.00365 µM and < 0.0193 µM | 0.822 µM and 0.121 µM | 0.0691 µM and 0.104 µM | 0.784 µM and 0.501 µM
CN(C)CCCNC(=O)c1cc2c3ccccc3[nH]c2c2ncccc12 | 5.23 µM | 68.2 µM | 13.2 µM | 39 µM | 16.7 µM | 70 µM | 24.9 µM | > 100 µM | 13 µM | 33.8 µM | 14.1 µM | > 100 µM | 19.8 µM | 67.3 µM | 19.9 µM | > 100 µM | 15.6 µM | > 100 µM | 20.3 µM | > 100 µM
COC(=O)C1CC2(c3ccc(C)cc3)C(c3ccc(C)cc3)=C(c3ccc(C)cc3)C1(c1ccc(C)cc1)S2=O (stereo unspecified) | > 100 µM | > 100 µM | 90.2 µM | > 100 µM | 65.1 µM | > 100 µM | > 100 µM | > 100 µM | 10.6 µM | 29.6 µM | > 100 µM | > 100 µM | > 100 µM | > 100 µM | > 100 µM | > 100 µM | > 100 µM | > 100 µM | > 100 µM | > 100 µM
COc1cc(C2c3cc4c(cc3C3OC(=O)C2C3CO)OCO4)cc(OC)c1OC (stereo unspecified) | 0.0344 µM | > 100 µM | < 0.0162 µM |  | 0.0354 µM | > 100 µM | 0.0285 µM | > 100 µM | 0.0415 µM | > 100 µM | 0.0294 µM | > 100 µM | 0.0132 µM | > 100 µM | 0.0616 µM | > 100 µM | 0.0457 µM | > 100 µM | 0.0539 µM | > 100 µM
CCN(CC)c1ccc(/C=C/C(=O)c2cccc(NS(C)(=O)=O)c2)cc1 | 6.2 µM | > 100 µM | 58 µM | > 100 µM | 10.9 µM | > 100 µM | 6.35 µM | > 100 µM | 10.6 µM | > 100 µM | > 100 µM | > 100 µM | 3.18 µM | > 100 µM | 74 µM | > 100 µM | 6.69 µM | > 100 µM | 35 µM | > 100 µM
O=C1C[C@@H](c2ccccc2)NCCCCN(O)CCCN1 |  | > 100 µM |  | > 100 µM |  | > 100 µM |  | > 100 µM |  | > 100 µM |  | > 100 µM |  | > 100 µM |  | > 100 µM |  | > 100 µM |  | > 100 µM
CC1=C[C@H]2c3c(c(O)c(O)c4oc5cc(O)cc(O)c5c(=O)c34)[C@H](c3cc(O)c(O)c4oc5cc(O)cc(O)c5c(=O)c34)[C@H]2C(C)(C)C1 | 1.73 µM and 1.84 µM | 5.27 µM and 10.2 µM | 1.76 µM | 4.3 µM and 4.04 µM | 0.789 µM and 1.08 µM | 3.26 µM and 17 µM | 1.96 µM and 1.8 µM | 7.41 µM and 5.46 µM | 1.51 µM and 2.08 µM | 10.5 µM and 12.7 µM | 0.686 µM and 1.67 µM | 6.17 µM and 24.9 µM | 1.04 µM and 1.51 µM | 3.02 µM and 3.57 µM | 2.16 µM and 1.99 µM | 5.88 µM and 5.25 µM | 1.84 µM and 2.11 µM | 6.88 µM and 8.24 µM | 2.71 µM and 2.1 µM | 10.5 µM and 6.58 µM
OC(COc1ccc(Cl)cc1Cl)CN1CCCC1 (stereo unspecified) |  | > 100 µM |  | > 100 µM |  | > 100 µM |  | > 100 µM |  | > 100 µM |  | > 100 µM |  | > 100 µM |  | > 100 µM |  | > 100 µM |  | > 100 µM
Cc1sc2nc(-c3ccccn3)c(/C=N/N=C(N)N)n2c1C | 7.29 µM | 14.8 µM | 5.56 µM | 16.1 µM | 9.3 µM | 21 µM | 10.2 µM | 28.6 µM | 21.2 µM | 47.4 µM | 12.6 µM | 45 µM | 7.85 µM | 15.6 µM | 5.74 µM | 15.5 µM | 14.4 µM | 28.9 µM | 7.67 µM | 16.2 µM
O=C(Cc1ccc(/C=C/C(=O)c2ncc[nH]2)cc1)Nc1ccc(Br)cc1 | 2.72 µM | 5.25 µM | 2.4 µM | 4.82 µM | 0.704 µM | 2.56 µM | 2.51 µM | 10.2 µM | 2.37 µM | > 16.7 µM | 6.06 µM | > 16.7 µM | 0.864 µM | 3.13 µM | 3.31 µM | 10.1 µM | 2.59 µM | 6.93 µM | 2.24 µM | 5.83 µM

— PubChem BioAssay (NCI)
